Data published in patent US20100286254A1 (ANTISOMA RESEARCH LIMITED, priority 2007, published 2010).
Counter-ions that a name gives are not always drawn. One block for each molecule: values may come before it.

Columns and labels:
[1] = test system: syngeneic murine tumours or human tumour xenografts; conditions: mouse, in vivo; cited from earlier work
human tumours = conditions: monotherapy, cited from earlier work
Hygroscopicity = type: physicochemical; conditions: sodium salt
[2] = Storage under controlled relative humidity (solid form stability); type: physicochemical
Excerpt: A high relative humidity is here defined as a relative humidity of about 70 to 90%. […] In particular, the water content can be well controlled and remains constant, over time.

[3] = Dynamic Vapour Sorption (DVS) experiment; type: physicochemical; conditions: 25° C.
Experimental: DVS: Dynamic vapour sorption measurements were carried out with an instrument of Surface Measurement Systems (http:www.smsuk.co.uk). The weight change of the investigated sample is monitored while the relative humidity is changed over a range from 0% r.h. to 95% r.h. at a change rate of 5% per hour.
About 10 mg of a mixture of forms B and C is placed into a suitable sample pan and investigated with a dynamic vapour sorption apparatus of Surface Measurement Systems, DVS-1 (series 1000) using software version DVS win SP2, V3.01 at 25° C. The initial relative humidity is 50% and the initial mass is 100%, thereafter the humidity is increased to 95% and kept at this level for 2 hours, then the humidity is decreased to 0%, and kept at 0% during 10 hours, then raised again to 95%. Change rates are always 5% per hour.

[4] = 52% relative humidity, ambient temperature, about two weeks

hygroscopicity (Hygroscopicity): hygroscopic
SMILES: Cc1ccc2c(=O)c3cccc(CC(=O)O)c3oc2c1C [form L, DMXAA sodium salt]

water adsorbed ([3]; at 95% r.h.): about 1% | water release ([3]; scanning r.h. to 0%): all the water is released
SMILES: Cc1ccc2c(=O)c3cccc(CC(=O)[O-])c3oc2c1C.[Na+] [mixture of forms B and C, DMXAA sodium salt]

More lines, now with the values behind:

SMILES: Cc1ccc2c(=O)c3cccc(CC(=O)O)c3oc2c1C [DMXAA]
antivascular activity, tumour blood flow [1]: prolonged inhibition of tumour blood flow leading to extensive regions of haemorrhagic necrosis | tumour responses (human tumours; phase I trials): few tumour responses were achieved | tumour blood flow (human tumours; well-tolerated doses, dynamic MRI): significant reduction in tumour blood flow

SMILES: Cc1ccc2c(=O)c3cccc(CC(=O)O)c3oc2c1C [amorphous DMXAA sodium salt, DMXAA sodium salt, reference compound]
hygroscopicity (Hygroscopicity): very hygroscopic

SMILES: Cc1ccc2c(=O)c3cccc(CC(=O)O)c3oc2c1C [form E, DMXAA sodium salt]
hygroscopicity (Hygroscopicity): hygroscopic

SMILES: Cc1ccc2c(=O)c3cccc(CC(=O)O)c3oc2c1C [form F, DMXAA sodium salt]
change of the crystal form on storage [2, 4]: did not lead to a change of the crystal form | water content after storage [2, 4]: about 3% | form conversion on storage ([2]; 75% relative humidity at 40° C.): transforms into form B within a few days | form conversion on storage ([2]; open container, 75% relative humidity, about 34 hours): transformed into form B | hygroscopicity (Hygroscopicity): hygroscopic
